Laboratory results reported in patent publication US20250059220A1, “SUBSTITUTED BENZOTHIOPHENE DERIVATIVES AND METHODS OF USE THEREOF” (Merck Sharp & Dohme LLC, priority 2021, published 2025).
pIC50: −log10 of the molar value.

Experiments:
human PTPN2 (1-387) = human PTPN2 (1-387) (Homo sapiens (Human), UniProt P17706); test: Human PTPN2 Biochemical Assay; conditions: DiFMUP substrate
Description: Human PTPN2 Biochemical Assay
Test compounds were dissolved in DMSO, and 10-point serial 3-fold dilution series in DMSO were prepared in Echo Qualified 384-well Polypropylene Microplates (Labcyte, San Jose, CA) (top concentration 50 µM). Assay plates (384-well low volume black plates; Corning #3820, Corning, NY) were prepared by dispensing 50 nL of test compound, and DMSO (for high and low controls) by ECHO acoustic dispenser (Labcyte, San Jose CA). This was followed by addition of 5 μL of 0.2 nM human PTPN2 (1-387) solution (prepared in the assay buffer, 50 mM Tris pH 7.4, 150 mM NaCl, 0.01% Tween20, 0.5 mM dithiothreitol) to all wells except the low control. 5 μl of assay buffer was added into the low control, then the plate was incubated for 30 minutes at room temperature. Subsequently, 5 μl of 100 µM DiFMUP (6,8-difluoro-4-methylumbelliferyl phosphate) solution (prepared in assay buffer from 10 mM stock in DMSO) was added to the assay plate and incubated for 1 hour at room temperature. For detection, assay plates were read on SpectraMax Microplate Reader (Molecular Devices), with Excitation wavelength=360 nm and Emission wavelength=460 nm. Test compound effects were normalized to the window defined by the controls, DMSO/buffer, and DMSO/50 pM human PTPN2. Calculated % effects were fit using a 4-parameter algorithm, and EC50 was reported.

human PTPN1 (1-435) = human PTPN1 (1-435) (Homo sapiens (Human), UniProt P18031); test: Human PTPN1 Biochemical Assay; conditions: DiFMUP substrate, read-out: PTP1B IC50
human PTPN1 (1-435), sequence (P18031 whole entry): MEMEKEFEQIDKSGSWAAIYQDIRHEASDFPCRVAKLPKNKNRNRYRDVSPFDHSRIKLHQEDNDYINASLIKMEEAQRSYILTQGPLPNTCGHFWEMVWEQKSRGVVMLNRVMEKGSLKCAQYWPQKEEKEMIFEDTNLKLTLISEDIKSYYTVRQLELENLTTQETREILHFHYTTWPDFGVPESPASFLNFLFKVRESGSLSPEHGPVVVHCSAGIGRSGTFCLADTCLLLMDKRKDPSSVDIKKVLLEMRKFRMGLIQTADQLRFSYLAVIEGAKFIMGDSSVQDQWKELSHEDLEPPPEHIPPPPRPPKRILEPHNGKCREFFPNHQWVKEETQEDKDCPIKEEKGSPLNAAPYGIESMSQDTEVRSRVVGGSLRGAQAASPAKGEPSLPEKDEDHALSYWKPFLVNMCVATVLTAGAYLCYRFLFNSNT
Description: Human PTPN1 Biochemical Assay
Test compounds were dissolved in DMSO, and 10-point serial 3-fold dilution series in DMSO were prepared in Echo Qualified 384-well Polypropylene Microplates (Labcyte, San Jose, CA) (top concentration 50 µM). […] 5 μl of assay buffer was added into the low control. The plate was incubated for 30 minutes at room temperature. Subsequently, 5 μl of 100 µM DiFMUP (6,8-difluoro-4-methylumbelliferyl phosphate) solution (prepared in assay buffer from 10 mM stock in DMSO) was added to the assay plate and incubated for 1 hour at room temperature. For detection, assay plates were read on SpectraMax Microplate Reader (Molecular Devices), with Excitation wavelength=360 nm and Emission wavelength=460 nm. […] Calculated % effects were fit using a 4-parameter algorithm, and EC50 was reported.

human PTPN2 (1-387), sequence (P17706 other isoform, or with tags, fused parts or gaps): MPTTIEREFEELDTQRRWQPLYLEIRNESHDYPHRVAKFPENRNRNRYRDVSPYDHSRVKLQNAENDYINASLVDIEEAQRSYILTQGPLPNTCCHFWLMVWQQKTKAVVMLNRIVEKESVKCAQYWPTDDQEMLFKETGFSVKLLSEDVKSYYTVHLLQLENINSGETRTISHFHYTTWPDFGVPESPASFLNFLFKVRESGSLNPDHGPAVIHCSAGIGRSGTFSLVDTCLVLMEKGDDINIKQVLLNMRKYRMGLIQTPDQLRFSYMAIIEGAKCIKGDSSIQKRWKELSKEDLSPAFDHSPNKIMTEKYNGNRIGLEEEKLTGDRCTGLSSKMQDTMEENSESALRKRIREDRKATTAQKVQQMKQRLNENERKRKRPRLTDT

| SMILES | pIC50 (human PTPN2 (1-387)) | pIC50 (human PTPN1 (1-435)) |
| --- | --- | --- |
| CCCC(C)Oc1cc(C(N)=O)cc2c(Br)c(C(F)(F)P(=O)(O)O)sc12 (stereo not drawn) [Compound 370] | 6.85 | 6.88 |
| O=P(O)(O)C(F)(F)c1sc2cc(Br)ccc2c1Br [Compound 298, ((3,6-dibromobenzo[b]thiophen-2-yl)difluoromethyl)phosphonic acid] | 4.67 | 4.93 |
| O=C(NCc1ncn[nH]1)c1ccc2sc(C(F)(F)P(=O)(O)O)c(Br)c2c1 [Compound 139] | 5.83 | 5.89 |
| N#Cc1cccc2c(Br)c(C(F)(F)P(=O)(O)O)sc12 [Compound 8, ((3-bromo-7-cyanobenzo[b]thiophen-2-yl)difluoromethyl)phosphonic acid] | 5.40 | 5.49 |
| N#Cc1c(C(F)(F)P(=O)(O)O)sc2c(OCCCS(N)(=O)=O)cc(-c3c[nH]nn3)cc12 [Compound 455, ((3-cyano-7-(3-sulfamoylpropoxy)-5-(1H-1,2,3-triazol-4-yl)benzo[b]thiophen-2-yl)difluoromethyl)phosphonic acid] | 8.57 | 8.44 |
| COc1ccc(COc2cc(C(N)=O)cc3c(Br)c(C(F)(F)P(=O)(O)O)sc23)cc1C(F)(F)F [Compound 361] | 7.26 | 6.88 |
| NC(=O)c1cc(OCC2C(F)(F)C23CCC3)c2sc(C(F)(F)P(=O)(O)O)c(Br)c2c1 (stereo not drawn) [Compound 294] | 7.09 | 7.42 |
| O=C(Nc1cccc(OC(F)(F)F)c1)c1ccc2sc(C(F)(F)P(=O)(O)O)c(Br)c2c1 [Compound 18] | 5.66 | 5.87 |
| N#Cc1c(C(F)(F)P(=O)(O)O)sc2c(OCCCS(N)(=O)=O)cc(-c3nc[nH]n3)cc12 [Compound 457, ((3-cyano-7-(3-sulfamoylpropoxy)-5-(1H-1,2,4-triazol-3-yl)benzo[b]thiophen-2-yl)difluoromethyl)phosphonic acid] | 8.60 | 8.60 |
| CC(C)(C)c1ccc(COc2cc(C(N)=O)cc3c(Br)c(C(F)(F)P(=O)(O)O)sc23)cc1 [Compound 359] | 7.45 | 6.96 |
| O=C(NCCn1cnnc1)c1ccc2sc(C(F)(F)P(=O)(O)O)c(Br)c2c1 [Compound 143] | 5.21 | 5.36 |
| CCn1nccc1NC(=O)c1ccc2sc(C(F)(F)P(=O)(O)O)c(Br)c2c1 [Compound 99] | 5.42 | 5.58 |
| Cc1cc(S(C)(=O)=O)ccc1COc1cc(C(N)=O)cc2c(Br)c(C(F)(F)P(=O)(O)O)sc12 [Compound 391] | 8.20 | 7.91 |
| O=C(NC1CC1(F)F)c1ccc2sc(C(F)(F)P(=O)(O)O)c(Br)c2c1 (stereo not drawn) [Compound 39] | 5.52 | 5.64 |
| O=C(NC(c1ccccc1F)C(F)(F)F)c1ccc2sc(C(F)(F)P(=O)(O)O)c(Br)c2c1 (stereo not drawn) [Compound 13] | 5.28 | 5.39 |
| O=C(NCc1cnsn1)c1ccc2sc(C(F)(F)P(=O)(O)O)c(Br)c2c1 [Compound 188] | 5.85 | 6.15 |
| O=C(NCc1cccnn1)c1cc(OCCCC(F)(F)F)c2sc(C(F)(F)P(=O)(O)O)c(Br)c2c1 [Compound 10, ((3-bromo-5-((pyridazin-3-ylmethyl)carbamoyl)-7-(4,4,4-trifluorobutoxy)benzo[b]thiophen-2-yl)difluoromethyl)phosphonic acid] | 8.24 | 8.34 |
| O=C(Nc1cccc(-n2nccn2)c1)c1ccc2sc(C(F)(F)P(=O)(O)O)c(Br)c2c1 [Compound 109] | 6.11 | 6.33 |
| O=C(Nc1ccccc1)c1ccc2sc(C(F)(F)P(=O)(O)O)c(C(F)(F)F)c2c1 [Compound 9, (difluoro(5-(phenylcarbamoyl)-3-(trifluoromethyl)benzo[b]thiophen-2-yl)methyl)phosphonic acid] | 5.67 | 5.66 |
| COc1ccc2[nH]cc(CCNC(=O)c3ccc4sc(C(F)(F)P(=O)(O)O)c(Br)c4c3)c2c1 [Compound 154] | 5.56 | 5.82 |
| CC(C)OCCNC(=O)c1ccc2sc(C(F)(F)P(=O)(O)O)c(Br)c2c1 [Compound 60] | 5.60 | 5.24 |
| CN(C)CCNC(=O)c1cc(OCCCC(F)(F)F)c2sc(C(F)(F)P(=O)(O)O)c(Br)c2c1 [Compound 211] | 6.29 | 6.16 |
| CNC(=O)c1cc(OCCCS(N)(=O)=O)c2sc(C(F)(F)P(=O)(O)O)c(C#N)c2c1 [Compound 427] | 8.44 | 8.27 |
| CCC(NC(=O)c1ccc2sc(C(F)(F)P(=O)(O)O)c(Br)c2c1)c1ccccn1 (stereo not drawn) [Compound 197] | 5.02 | 5.14 |
| NC(=O)COc1cc(C(N)=O)cc2c(Br)c(C(F)(F)P(=O)(O)O)sc12 [Compound 245] | 5.83 | 6.04 |
| COCCCNC(=O)c1ccc2sc(C(F)(F)P(=O)(O)O)c(Br)c2c1 [Compound 125] | 5.19 | 5.28 |

Further compounds by rising pIC50 (human PTPN2 (1-387)), results first:

| pIC50 (human PTPN2 (1-387)) | pIC50 (human PTPN1 (1-435)) | SMILES |
| --- | --- | --- |
| 5.06 | 5.04 | CC(C)(NC(=O)c1ccc2sc(C(F)(F)P(=O)(O)O)c(Br)c2c1)c1ncn(-c2ccccc2)n1 [Compound 70] |
| 5.21 | 5.28 | O=C(NCC1CNC1)c1ccc2sc(C(F)(F)P(=O)(O)O)c(Br)c2c1 [Compound 126] |
| 5.31 | 5.50 | O=C(NC1CCN(Cc2ccccc2)C1)c1ccc2sc(C(F)(F)P(=O)(O)O)c(Br)c2c1 (stereo not drawn) [Compound 67] |
| 5.34 | 5.33 | CCN1C(=O)CCC12C[C@H]2CCNC(=O)c1ccc2sc(C(F)(F)P(=O)(O)O)c(Br)c2c1 (stereo partly drawn) [Compound 85] |
| 5.37 | 5.45 | O=C(NCc1cnccn1)c1ccc2sc(C(F)(F)P(=O)(O)O)c(Br)c2c1 [Compound 123] |
| 5.48 | 5.60 | COc1ccc(NC(=O)c2ccc3sc(C(F)(F)P(=O)(O)O)c(Br)c3c2)cc1 [Compound 29] |
| 5.62 | 5.75 | O=C(NCc1cncnc1)c1ccc2sc(C(F)(F)P(=O)(O)O)c(Br)c2c1 [Compound 42] |
| 5.63 | 5.75 | O=C(Nc1cccc(C(=O)N2CCCC2)c1)c1ccc2sc(C(F)(F)P(=O)(O)O)c(Br)c2c1 [Compound 101] |
| 6.04 | 6.19 | O=C(Nc1cccc(-c2cnco2)c1)c1ccc2sc(C(F)(F)P(=O)(O)O)c(Br)c2c1 [Compound 61] |
| 6.36 | 6.26 | NC(=O)c1cc(OCCOCC(F)(F)F)c2sc(C(F)(F)P(=O)(O)O)c(Br)c2c1 [Compound 237] |
| 6.53 | 6.63 | NC(=O)c1cc(OCC(=O)Nc2c(F)cccc2F)c2sc(C(F)(F)P(=O)(O)O)c(Br)c2c1 [Compound 257] |
| 6.91 | 6.78 | NC(=O)c1cc(OCc2cccc3ccccc23)c2sc(C(F)(F)P(=O)(O)O)c(Br)c2c1 [Compound 385] |
| 7.10 | 7.31 | CC1(C)CC(COc2cc(C(N)=O)cc3c(Br)c(C(F)(F)P(=O)(O)O)sc23)C1 [Compound 292] |
| 7.15 | 7.10 | NC(=O)c1cc(NCCCS(N)(=O)=O)c2sc(C(F)(F)P(=O)(O)O)c(Br)c2c1 [Compound 312] |
| 7.27 | 7.16 | NC(=O)c1cc(OCC2CC2(F)F)c2sc(C(F)(F)P(=O)(O)O)c(Br)c2c1 (stereo not drawn) [Compound 250] |
| 7.30 | 7.55 | CC12CC(COc3cc(C(N)=O)cc4c(Br)c(C(F)(F)P(=O)(O)O)sc34)(C1)C2 [Compound 283] |
| 7.32 | 7.24 | CC1CCS(=O)(=O)C1CCOc1cc(C(N)=O)cc2c(Br)c(C(F)(F)P(=O)(O)O)sc12 (single isomer, unassigned) [Compound 393] |
| 7.70 | 7.80 | O=C(NCc1cccnn1)c1cc(OCCCc2cncs2)c2sc(C(F)(F)P(=O)(O)O)c(Br)c2c1 [Compound 268] |
| 7.76 | 7.67 | CC1CCS(=O)(=O)C1CCOc1cc(C(N)=O)cc2c(Br)c(C(F)(F)P(=O)(O)O)sc12 (single isomer, unassigned) [Compound 395] |
| 7.86 | 6.88 | C=C(C)C#Cc1cc(C(N)=O)cc2c(Br)c(C(F)(F)P(=O)(O)O)sc12 [Compound 210] |
| 7.87 | 7.82 | O=C(NCc1cccnn1)c1cc(OCCCC2CC2)c2sc(C(F)(F)P(=O)(O)O)c(Br)c2c1 [Compound 236] |
| 8.12 | 8.07 | CCNC(=O)c1cc(OCCCS(C)(=O)=O)c2sc(C(F)(F)P(=O)(O)O)c(Br)c2c1 [Compound 305] |
